# Measured values published in patent publication US7105310B1, “Detection of biomolecules by sensitizer-linked substrates” (California Institute of Technology, priority 2000, dated 2006).
# Several values for one entry are separate records, joined by “and”; a condition that tells them apart may be missing. Identical values can stand only once.
# Assays:
# P450 [1] = target: T1, P450 (Pseudomonas putida, UniProt P00183); assay: Steady-state luminescence of Ru-dppa probes in acetonitrile, buffer and buffer with P450; conditions: for integrated luminescence intensity with P450 as % of value in acetonitrile: buffer in the presence of P450
# T1 construct: made in house; host or cells: E. coli
# T1 sequence (P00183 1-415): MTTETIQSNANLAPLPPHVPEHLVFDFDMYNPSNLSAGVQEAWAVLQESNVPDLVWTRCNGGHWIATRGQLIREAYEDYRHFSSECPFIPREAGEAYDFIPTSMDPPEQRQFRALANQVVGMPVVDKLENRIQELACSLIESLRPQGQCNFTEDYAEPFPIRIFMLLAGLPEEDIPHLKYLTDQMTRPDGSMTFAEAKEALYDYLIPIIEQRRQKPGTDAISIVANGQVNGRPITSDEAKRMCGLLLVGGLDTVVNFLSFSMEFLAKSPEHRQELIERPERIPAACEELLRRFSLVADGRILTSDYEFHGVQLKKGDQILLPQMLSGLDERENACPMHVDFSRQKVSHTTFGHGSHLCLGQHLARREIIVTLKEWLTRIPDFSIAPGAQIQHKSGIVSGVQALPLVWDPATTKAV
# Procedure: (§1) Electrospray mass spec. data was collected on a Finnigan LCQ quadrupole ion trap mass spectrometer.
# (§2) P450 was stored in small aliquots and thawed immediately before use. Samples were prepared in 50 mM Kphos buffer containing 100 mM KCl. P450 concentration was quantified using the heme soret absorption at 416.5 nm (115,000 M^−1 cm^−1). Samples were prepared in a custom quartz cuvette fitted with a Kontes Teflon stopcock. Oxygen was removed from the sample by completing at least 30 cycles of partial vacuum followed by an influx of argon.
# The luminescence of compounds 1–3 was examined in acetonitrile, potassium phosphate buffer, and buffer in the presence of P450 (as described above). […] The complexes 2 and 3 show modest recoveries of luminescence, with integrated intensities that are 2.6 and 5.2% of their values in acetonitrile (FIG. 49). The luminescence from 3 is approximately 20 fold greater in the presence of P450 than in buffer alone.
# P450cam = target: T2, P450cam (Pseudomonas putida, UniProt P00183); assay: Binding of [Ru(phen)2dppa]-adamantyl probes to P450; conditions: Example VI
# T2 construct: made in house; host or cells: E. coli
# T2 sequence (P00183 1-415): T1 sequence (P00183 1-415)
# Procedure: as §1, §2
# NOS = conditions: cited from earlier work
# cytochrome P450cam [2] = target: T3, cytochrome P450cam (Pseudomonas putida, UniProt P00183, C335A); conditions: untethered control complexes
# cytochrome P450cam [3] = target: T4, cytochrome P450cam (Pseudomonas putida, UniProt P00183); conditions: cited from earlier work
# cytochrome P450cam [4] = target: T4, cytochrome P450cam; conditions: for rate of hydroxylation (NADH consumption): NADH/PdR/Pd/P450, 1 μM P450, 20 °C
# Procedure: Two cycles of acetonitrile (5 mL) addition, decanting, and rotary evaporation were performed to separate the buffer salts from the ruthenated species. The ruthenium concentration was quantified by UV-vis (ε456=14,500 M^−1 cm^−1).
# Each solution was injected three different times, with intermediary blank runs of pure acetonitrile. Relative peak intensities were determined using analysis software, which deconvolved the spectra to assign one singly charged peak to each compound. […] This information was crucial in quantifying hydroxylated product yields relative to starting material in the analysis of subsequent turnover experiments.
# The oxygen electrode was calibrated at 20° C. (linear response with [O2], 0–100% O2), and connected to a LeCroy oscilloscope interfaced to a PC using freely available LeCroy software (LeCroy, Chestnut Ridge, N.Y.). The O2 electrode (3 mm diameter with Teflon casing) was pushed through a septum, which formed an airtight seal with the mouth of a standard 1 cm pathlength cuvette. […] All UV-vis experiments were conducted with stirred samples at 20° C. […] Experiments were initiated upon addition of 200 μM NADH, and absorbance at 340 nm was measured simultaneously with O2 consumption.
# The consumption of NADH was monitored at 340 nm by UV-vis spectroscopy and O2 consumption monitored with the microelectrode. Once all of the NADH was consumed, a known amount of 3-endo-bromo-camphor was added, and the mixture was extract three times with an equal volume of methylene chloride. The organic extract was concentrated by evaporation and analyzed by GC.
# cytochrome P450cam [5] = target: T3, cytochrome P450cam; assay: biochemical
# Procedure: A Hewlett Packard 8452A spectrophotometer was used to collect UV-vis data. Buffer conditions were 50 mM potassium phosphate, 100 mM potassium chloride, pH 7.4 for all protein solutions (˜5 μM P450). […] Thus, affinities were determined by the ability of these complexes to inhibit the low- to high-spin transition produced by camphor. […] The concentration of ethanol never exceeded 1% of the total volume. […] Absorbance changes were recorded at 392 and 416 nm. […] By definition, KD=Kcam/KI, where Kcam is the dissociaton constant of camphor (in the absence of Ru-substrate), and KI is the equilibrium constant between camphor- and ruthenium-bound P450, spectroscopically determined by measuring the dissociation constant of camphor at multiple Ru concentrations. Luminescence experiments measure KD directly.
# Asp251Asn = Asp251Asn (Pseudomonas putida, UniProt P00183, D252N); conditions: decreases above 15° C.; cited from earlier work
# P450:Ru complex = target: T5, P450:Ru complex (Pseudomonas putida, UniProt P00183); assay: Camphor titration into stoichiometric P450:Ru—C10 (UV-vis); assay type: binding
# T5 construct: made in house
# T5 sequence (P00183 2-415 limits assumed): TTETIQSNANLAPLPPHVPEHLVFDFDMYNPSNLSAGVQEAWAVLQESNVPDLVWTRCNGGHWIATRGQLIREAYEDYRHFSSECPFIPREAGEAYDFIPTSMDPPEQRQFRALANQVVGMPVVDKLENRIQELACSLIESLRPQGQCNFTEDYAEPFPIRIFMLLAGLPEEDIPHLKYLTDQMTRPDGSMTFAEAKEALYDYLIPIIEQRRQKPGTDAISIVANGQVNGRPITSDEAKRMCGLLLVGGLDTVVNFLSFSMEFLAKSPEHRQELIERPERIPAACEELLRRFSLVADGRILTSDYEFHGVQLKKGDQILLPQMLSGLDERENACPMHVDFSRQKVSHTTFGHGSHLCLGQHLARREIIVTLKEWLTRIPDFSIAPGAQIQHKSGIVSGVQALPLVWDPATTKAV
# P450 [6] = target: T1, P450; conditions: cited from earlier work
# iNOS = conditions: cited from earlier work
# nNOS = conditions: cited from earlier work
# eNOS = conditions: cited from earlier work
# [7] = test system: six heme proteins (yeast cytochrome c, horse skeletal muscle myoglobin, bovine lipase cytochrome b5, bovine liver catalase, recombinant yeast cytochrome c …); assay: Emission decay of Ru-substrate in presence of other heme proteins; conditions: […] Ru—C9-Ad, 50 mM sodium phosphate pH 7; monophasic = no binding
molecule,measurement,setting,value
Ru(phen)2dppa-adm [compound 3],quantum yield bound to P450,P450 [1]; based on reported quantum yield of [Ru(phen)2dppz]2+ in aerated acetonitrile,0.00038
same,integrated luminescence intensity with P450 as % of value in acetonitrile,P450 [1],5.2%
same,Kd,P450cam,0.18 µM
"N=C(NCCC[C@H](N)C(=O)O)N[N+](=O)[O-] [NMA, N^ω-nitro-arginine]",inhibition of NOS,NOS,"good, but non-specific inhibitor"
Ru(phen)2dppa-C6-Ad [compound 1],luminescence increase over background,P450 [1],did not show a significant increase in luminescence
same,Kd,P450cam,0.25 µM
"[Cl-].[Cl-].[Ru+2].c1ccc(-c2ccccn2)nc1.c1ccc(-c2ccccn2)nc1.c1ccc(-c2ccccn2)nc1 [[Ru(bpy)3]^2+, Tris(2,2′-bipyridine)ruthenium(II) chloride]",quenching upon addition of P450,cytochrome P450cam [2],not quenched
NC(=O)CC12CC3CC(CC(C3)C1)C2 [1-adamantylacetamide],"rate of hydroxylation, literature value",cytochrome P450cam [3]; literature,~110 μmol NADH/min/μmol P450
CC12CCC(CC1=O)C2(C)C (stereo not shown) [camphor],rate of hydroxylation (NADH consumption),cytochrome P450cam [4],~600 μmol NADH/min/μmol P450
same,coupling of hydroxylation reaction,cytochrome P450cam [3],~100%
same,Kd,"cytochrome P450cam [5]; dissociation constant of camphor (KS, Kcam), P450 alone, no Ru-substrate, 50 mM potassium phosphate, 100 mM KCl, pH 7.4, 20 °C",3 µM and 3.1 µM
same,"association constant for camphor (In Keq), Asp251Asn",Asp251Asn,~14.2
same,Kd,P450:Ru complex,3.6 ± 0.2 µM
same,Kd,"P450 [6]; comparison value, read-out: KD of camphor (natural substrate)",~1 µM and 1.6 µM
same,"association constant for camphor (In Keq), WT P450",P450 [6]; decreases below 15° C.,~14.2
NC(=O)CC1C2CC3CC(C2)CC1C3 (stereo not shown) [2-adamantylacetamide],yield of hydroxylated product based on NADH (product formation/NADH consumption),cytochrome P450cam [4],47±3%
same,rate of hydroxylation (NADH consumption),cytochrome P450cam [4],90±20 μmol NADH/min/μmol P450
same,spin conversion at the heme,cytochrome P450cam [5],full low to high spin conversion
same,conversion of heme to high-spin species on binding,cytochrome P450cam [5]; ferric-aquo P450,95%
CC(=N)NCc1cccc(CN)c1 [1400W],type of inhibition,iNOS,irreversible inhibitor
same,type of inhibition,nNOS,"weak, reversible inhibitor"
same,type of inhibition,eNOS,"weak, reversible inhibitor"
Ru(phen)2dppa-gly-adm [compound 2],integrated luminescence intensity with P450 as % of value in acetonitrile,P450 [1],2.6%
same,Kd,P450cam,2.4 µM
[Ru(bpy)2(bpy-C9-Ad)]Cl2 [Ru—C9-Ad],effective product yield based on background oxidase activity,cytochrome P450cam [4],40%
same,yield of hydroxylated product based on NADH (product formation/NADH consumption),cytochrome P450cam [4],10%
same,rate of hydroxylation (NADH consumption),cytochrome P450cam [4],10±2 μmol NADH/min/μmol P450 and 8 μmol NADH/min/μmol P450
same,emission decay profile in presence of six heme proteins,[7],monophasic
D-Phe-D-ArgNO2—OMe,Kd,iNOS,3600 µM
same,dissociation constant,nNOS,micromolar
same,dissociation constant,eNOS,micromolar
